Literature values as cited in US12280046B2, “Melanocortin subtype-2 receptor (MC2R) antagonist for the treatment of disease” (Crinetics Pharmaceuticals, Inc., priority 2021, dated 2025).
Starred links: 1 amine or outer side, 2 acyl side, 3 side chain; linkers in the order of their positions; H or OH if unused. Non-standard residues stand in square brackets, D forms with d. Residues, ends and D or L forms follow the SMILES beside them. Groups on a side chain read outwards from the residue. *: point of attachment. Ethylenediamine = C(CN[*:2])N[*:1]; Hyp = O=C(O)[C@@H]1C[C@@H](O)CN1; Phg = N[C@H](C(=O)O)c1ccccc1; CO = O=C([*:1])[*:2]; Bn = c1ccc(C*)cc1

Experiments:
[1] = assumption for full suppression curve; cited from earlier work
[2] = Phase 3 trial; cited from earlier work

Compound | half-life [1] | patients achieving normalization of urinary free cortisol [2] | patients with a hyperglycemia-related adverse event [2]
C[C@]12CCC(=O)C=C1CC[C@@H]1[C@@H]2[C@@H](O)C[C@@]2(C)[C@H]1CC[C@]2(O)C(=O)CO [cortisol] | 1.1 ± 0.3 h | – | –
NCCCC[C@@H]1NC(=O)[C@@H](Cc2c[nH]c3ccccc23)NC(=O)[C@H](c2ccccc2)NC(=O)[C@@H]2C[C@@H](OC(=O)NCCN)CN2C(=O)[C@H](Cc2ccccc2)NC(=O)[C@H](Cc2ccc(OCc3ccccc3)cc2)NC1=O [pasireotide] (cyclo([Hyp]([CO-Ethylenediamine])[Phg][dW]KY(Bn)F)) | – | 15-26% | 73%
